In paper PMC11045757, “Group 3 medulloblastoma transcriptional networks collapse under domain specific EP300/CBP inhibition” (Nature Communications, 2024):

Tested on: 460 barcoded cancer cell lines
Assay: PRISM pooled barcoded cancer cell line growth screen, 10-point dose-response, 5 days, AUC
Type: cell-based
Design: scale not given here
Source text: Several small molecule inhibitors of distinct protein domains of EP300/CBP are available, though the majority target the histone acetyltransferase domain (HAT) or bromodomain (BRD)[5],[10],[21],[22]. […] We used these tools to investigate the relative contribution of the EP300/CBP BRD or HAT domain to tumor cell growth (Fig. 1a). To do so, we performed 10-point, dose-response growth assays using mixed pools of 460 barcoded cancer cell lines, over five days of treatment in vitro[33],[34]. Growth was measured using an area-under-the-curve (AUC) approach (Supplementary Table 1, Supplementary Fig. 1a). […] Given potential differences in compound penetration and solubility, and to compare the relative cell line and tumor-specific effects of these two compounds in assays performed non-simultaneously, we performed a median normalization of each dataset (Supplementary Table 2).

CO[C@H]1CC[C@H](n2c([C@@H]3CCCC(=O)N3c3ccc(F)c(F)c3)nc3cc(-c4c(C)noc4C)ccc32)CC1 [CCS1477]
AUC (22RV1, Prostate Cancer): 0.7824 | AUC (42MGBA, Glioma): 0.959 | AUC (143B, Osteosarcoma): 0.7756 | AUC (639V, Bladder Cancer): 1 | AUC (647V, Bladder Cancer): 0.9387 | AUC (697, B-cell Leukemia): 0.8421 | AUC (769P, Kidney Cancer): 0.866 | AUC (5637, Bladder Cancer): 0.9709 | AUC (8305C, Thyroid Cancer): 0.9842 | AUC (A101D, Melanoma): 0.9949 | AUC (A204, Rhabdoid): 0.6935 | AUC (A253, Head and Neck Cancer): 0.8895 | AUC (A375, Melanoma): 0.896 | AUC (A427, Lung Cancer): 0.8534 | AUC (A673, Ewing Sarcoma): 0.974 | AUC (A1207, Glioblastoma): 1 | AUC (ACHN, Kidney Cancer): 0.9303 | AUC (AM38, Glioblastoma): 0.9422 | AUC (AN3CA, Endometrial/Uterine Cancer): 0.9421 | AUC (AU565, Breast Cancer): 0.9734 | AUC (BDCM, AML): 0.9113 | AUC (BEN, Lung Cancer): 0.7123 | AUC (BFTC905, Bladder Cancer): 0.9629 | AUC (BHT101, Thyroid Cancer): 0.7216 | AUC (BICR16, Head and Neck Cancer): 0.7276 | AUC (BICR18, Head and Neck Cancer): 0.7534 | AUC (BICR22, Head and Neck Cancer): 0.8618 | AUC (BICR31, Head and Neck Cancer): 0.8654 | AUC (BICR56, Head and Neck Cancer): 0.8942 | AUC (BT16, Rhabdoid): 0.8481 | AUC (BT474, Breast Cancer): 0.9512 | AUC (C32, Melanoma): 0.5879 | AUC (C8166, Lymphoma): 0.8246 | AUC (CADOES1, Ewing Sarcoma): 0.8986 | AUC (CAKI1, Kidney Cancer): 0.9906 | AUC (CAL27, Head and Neck Cancer): 0.9982 | AUC (CAL54, Kidney Cancer): 0.8391 | AUC (CAL62, Thyroid Cancer): 0.9564 | AUC (CAL78, Chondrosarcoma): 0.8691 | AUC (CAL120, Breast Cancer): 0.9482 | AUC (CAOV3, Ovarian Cancer): 0.8478 | AUC (CBAGPN, Ewing Sarcoma): 0.8224 | AUC (CCK81, Colon/Colorectal Cancer): 0.8227 | AUC (CHL1, Melanoma): 0.6111 | AUC (CHLA06ATRT, Rhabdoid): 1 | AUC (CHLA10, Ewing Sarcoma): 0.9814 | AUC (CHLA15, Neuroblastoma): 0.7397 | AUC (CHLA57, Ewing Sarcoma): 0.9985 | AUC (CHP212, Neuroblastoma): 0.8537 | AUC (CI1, B-cell Lymphoma): 0.9278 | AUC (CJM, Melanoma): 0.8842 | AUC (CL11, Colon/Colorectal Cancer): 0.761 | AUC (CL34, Colon/Colorectal Cancer): 0.9427 | AUC (CMLT1, CML): 0.8343 | AUC (COGAR359, Rhabdoid): 1 | AUC (COGE352, Ewing Sarcoma): 0.998 | AUC (COLO320, Colon/Colorectal Cancer): 0.8831 | AUC (COLO678, Colon/Colorectal Cancer): 0.8848 | AUC (COLO783, Melanoma): 0.9736 | AUC (COLO792, Melanoma): 0.8076 | AUC (CORL23, Lung Cancer): 0.9125 | AUC (CORL105, Lung Cancer): 0.8782 | AUC (COV318, Ovarian Cancer): 0.899 | AUC (COV434, Ovarian Cancer): 0.9687 | AUC (CW2, Colon/Colorectal Cancer): 0.9939 | AUC (CW9019, Rhabdomyosarcoma): 0.9021 | AUC (DAOY, Medulloblastoma): 0.8871 | AUC (DEL, Lymphoma): 1 | AUC (DETROIT562, Head and Neck Cancer): 0.9177 | AUC (DKMG, Glioblastoma): 1 | AUC (DL, Rhabdoid): 0.7415 | AUC (DMS53, Lung Cancer): 0.712 | AUC (DMS273, Lung Cancer): 1 | AUC (DND41, T-acute leukemia): 0.9395 | AUC (DU145, Prostate Cancer): 0.9501 | AUC (DU4475, Breast Cancer): 0.7484 | AUC (DV90, Lung Cancer): 0.9154 | AUC (EB1, Lymphoma): 0.7489 | AUC (EBC1, Lung Cancer): 0.7317 | AUC (ECC10, Gastric Cancer): 0.9776 | AUC (ECGI10, Esophageal Cancer): 0.9953 | AUC (EFE184, Endometrial/Uterine Cancer): 0.7698 | AUC (EFM19, Breast Cancer): 0.7512 | AUC (EFO21, Ovarian Cancer): 0.9901 | AUC (EM2, CML): 0.9432 | AUC (EN, Endometrial/Uterine Cancer): 1 | AUC (ES2, Ovarian Cancer): 0.9355 | AUC (ESS1, Endometrial/Uterine Cancer): 0.9966 | AUC (EW8, Ewing Sarcoma): 1 | AUC (EWS502, Ewing Sarcoma): 0.7102 | AUC (FADU, Head and Neck Cancer): 0.8918 | AUC (FTC133, Thyroid Cancer): 0.9601 | AUC (FTC238, Thyroid Cancer): 0.9961 | AUC (G292CLONEA141B1, Osteosarcoma): 1 | AUC (G361, Melanoma): 0.6349 | AUC (G401, Rhabdoid): 0.8875 | AUC (G402, Rhabdoid): 0.8394 | AUC (GB1, Glioblastoma): 0.7767 | AUC (GCT, Pleomorphic Sarcoma): 0.9612 | AUC (GI1, Glioblastoma): 0.7855 | AUC (GOS3, Glioblastoma): 0.984 | AUC (GP2D, Colon/Colorectal Cancer): 0.7748 | AUC (GRANTA519, Lymphoma): 0.9571 | AUC (GSS, Gastric Cancer): 0.646 | AUC (HARA, Lung Cancer): 0.9612 | AUC (HCC33, Lung Cancer): 0.9669 | AUC (HCC38, Breast Cancer): 0.8868 | AUC (HCC44, Lung Cancer): 0.9456 | AUC (HCC56, Colon/Colorectal Cancer): 0.9605 | AUC (HCC78, Lung Cancer): 0.8972 | AUC (HCC95, Lung Cancer): 0.9968 | AUC (HCC515, Lung Cancer): 0.7803 | AUC (HCC1419, Breast Cancer): 0.8162
